Measured values as given in US12668599B2, “Heterobifunctional compounds and methods of treating disease” (Halda Therapeutics OpCo, Inc., priority 2023, dated 2026).

Columns and labels:
[1] = tested on: T-Rex 293 cell line SC3 cells having increased expression of androgen receptor protein due to exposure to doxycycline; assay: Cellular growth inhibition, T-Rex 293 SC3 cells with doxycycline-induced androgen receptor (CellTiter-Glo 2.0, 72 hours); assay type: cell-based; details: for GI50: T-Rex 293 SC3 cells with 10 ng/ml doxycycline (increased androgen receptor expression), 72 hours, CellTiter-Glo 2.0
Procedure: (§1) Ability of the test compounds to inhibit proliferation of the foregoing cell types was evaluated according to the procedures set forth below.
(§2) The doxycycline-inducible androgen receptor protein expressing cell line was established using the following protocol: T-Rex 293 cells were purchased from Invitrogen (Cat #R71007) and transfected using Lipofectamine 2000 with the wild-type androgen receptor protein sequence cloned into the pcDNA4/TO vector. Transfected cells were selected using 400 μg/mL Zeocin (Invitrogen Cat #R25001). Following selection, single clones were raised and maintained in Dulbecco's Modified Eagle Medium (DMEM) supplemented with 10% w/w Tetracycline-free fetal bovine serum (FBS) and 250 μg/mL Zeocin. Clones were analyzed for expression of androgen receptor protein in the presence and absence of 10 ng/ml doxycycline (Sigma Cat #D9891), and a single doxycycline-inducible clone (hereinafter “SC3”) was selected for use in downstream assays.
(§3) The SC3 cells were seeded on poly-D-lysine coated, black clear-bottom 384-well plates at 2500/well, in 25 μL Phenol Red Free Dulbecco's Modified Eagle Medium (DMEM) supplemented with 10% w/w charcoal-dextran treated fetal bovine serum (FBS) and 1% w/w pen-strep, with or without 10 ng/ml doxycycline. Pen-Strep is a commercially available mixture of penicillin G and streptomycin, which is used in mammalian cell culture media to prevent bacterial contamination. Phenol Red Free Dulbecco's Modified Eagle Medium (DMEM) supplemented with 10% w/w charcoal-dextran treated fetal bovine serum (FBS) and 1% w/w pen-strep, with or without 10 ng/mL doxycycline is herein referred to as Treatment Medium. Following seeding of cells in the plates, the plates were spun at 300×g for 30 seconds, then equilibrated to room temperature for 30 minutes, and then deposited in a humidified tissue culture incubator maintained at 37° C. with 5% CO2.
(§4) At 24 hours after seeding of the cells, dilutions of test compound were prepared in DMSO and dissolved in Treatment Medium, to achieve a final DMSO concentration of 0.5% w/w, thereby providing the Test Compound Solution. A 25 μL aliquot of the Test Compound Solution was added to cells in the well plates. An equal volume of a solution containing DMSO and Treatment Medium was used as a negative control. Following treatment of cells with Test Compound Solution or said equal volume of a solution containing DMSO and Treatment Medium, the plates were spun at 300×g for 30 seconds, and then left in an incubator for 72 hours.
(§5) At the end of the treatment duration, cell viability was quantified with CellTiter-Glo 2.0 reagent (Promega Cat #G9243). For this purpose, plates were equilibrated to room temperature for 30 minutes, and then 25 μL of CellTiter-Glo 2.0 reagent was added to cells in the plate wells. Plates were then agitated on a shaker for two minutes at 500 rpm and subsequently incubated at room temperature for 10 minutes. Following incubation, the plates were spun at 3000×g for 30 seconds, then sealed with an optical adhesive cover, and luminescence readings were measured with an En Vision Plate Reader.
(§6) Data was normalized using zero luminescence for baseline. A four-parameter non-linear regression curve fit was applied to dose-response data in GraphPad Prism data analysis software to determine the half-maximal growth inhibitory concentration (GI50) for each test compound.

[2] = tested on: T-Rex 293 cell line SC3 cells lacking increased expression of androgen receptor protein; assay: Cellular growth inhibition, T-Rex 293 SC3 cells without doxycycline (CellTiter-Glo 2.0, 72 hours); assay type: cell-based; details: T-Rex 293 SC3 cells not exposed to doxycycline (no increased androgen receptor expression)
Procedure: as §1, §2, §3, §4, §5, §6

VCaP cells = assay: Cellular growth inhibition assay for VCaP cells (CellTiter-Glo 2.0, 72 hours); assay type: cell-based, human; details: for GI50: CellTiter-Glo 2.0
Procedure: Exemplary compounds were tested for ability to inhibit the proliferation of VCaP cells. VCap cells are a commercially available human prostate cancer cell line.
VCaP cells were purchased from American Type Cell Culture (ATCC Cat #CRL2876) and then seeded on poly-D-lysine coated, black clear-bottom 384-well plates at 5000/well in 25 μL Dulbecco's Modified Eagle Medium (DMEM) supplemented with 10% w/w Fetal bovine serum (FBS) and 1% w/w Pen-Strep. Pen-Strep is a commercially available mixture of penicillin G and streptomycin, which is used in mammalian cell culture media to prevent bacterial contamination. Dulbecco's Modified Eagle Medium (DMEM) supplemented with 10% w/w fetal bovine serum (FBS) and 1% w/w Pen-Strep is herein referred to as Treatment Medium. Following seeding of cells in the plates, the plates were spun at 300×g for 30 seconds, then equilibrated to room temperature for 30 minutes, and then deposited in a humidified tissue culture incubator maintained at 37° C. with 5% CO2.
as §4, §5, §6

SMILES	GI50 [1] [nM]	GI50 ([2]; 72 h) [nM]	GI50 (VCaP cells; Homo sapiens, VCaP, 72 h) [nM]	GI50 [2] [nM]	GI50 (VCaP cells; 72 hours) [nM]	Ratio of GI50's ([1]; GI50 of the top compound in the pair divided by GI50 of the lower compound, T-Rex 293 SC3 cells with doxycycline-induced androgen receptor)	Ratio of GI50's (VCaP cells; GI50 of the top compound in the pair divided by GI50 of the lower compound)
COc1cc(O[C@H]2CC[C@H](NC(=O)c3ccc(N4CCC5(CCC(c6ccc(C7=N[C@@H](C)c8nnc(C)n8-c8sc(C)c(C)c87)cc6)CC5)C4)nn3)CC2)ccc1C#N (stereo partly drawn) [Compound I-19, N-[(1r,4r)-4-(4-cyano-3-methoxy-phenoxy)cyclohexyl]-6-[8-[4-[(9S)-4,5,9,13-tetramethyl-3-thia-1,8,11,12-tetrazatricyclo[8.3.0.0^2,6]trideca-2 (6),4,7,10,12-pentaen-7-yl]phenyl]-2-azaspiro[4.5]decan-2-yl]pyridazine-3-carboxamide]	< 500	< 500	< 500	–	–	–	–
COc1cc(O[C@H]2CC[C@H](NC(=O)c3ccc(N4CCC5(CCC(c6ccc(C7=N[C@@H](C)c8nnc(C)n8-c8sc(C)c(C)c87)cc6)CC5)C4)nn3)CC2)ccc1C#N (some centres unmarked) [Compound I-20]	< 500	–	–	< 500	< 500	–	–
COc1cc(O[C@H]2CC[C@H](NC(=O)c3ccc(N4CCC5(CCC(c6ccc(C7=N[C@@H](C)c8nnc(C)n8-c8sc(C)c(C)c87)cc6)C5)CC4)nn3)CC2)ccc1C#N (some centres unmarked) [Compound I-21]	< 500	–	–	< 500	500 to 1500	–	–
COc1cc(O[C@H]2CC[C@H](NC(=O)c3ccc(N4CCC5(CCC(c6ccc(C7=N[C@@H](C)c8nnc(C)n8-c8sc(C)c(C)c87)cc6)C5)CC4)nn3)CC2)ccc1C#N (some centres unmarked) [Compound I-22]	< 500	< 500	500 to 1500	–	–	–	–
COc1cc(O[C@H]2CC[C@H](NC(=O)c3ccc(N4CCC5(CCN(c6ccc(C7=N[C@@H](C)c8nnc(C)n8-c8sc(C)c(C)c87)cc6)C5)CC4)nn3)CC2)ccc1C#N [Compound I-23]	> 3000	< 500	> 3000	–	–	–	–
COc1cc(O[C@H]2CC[C@H](NC(=O)c3ccc(N4CCCC5(CCC(c6ccc(C7=N[C@@H](C)c8nnc(C)n8-c8sc(C)c(C)c87)cc6)CC5)C4)nn3)CC2)ccc1C#N (some centres unmarked) [Compound I-24]	< 500	1500 to 3000	< 500	–	–	–	–
COc1cc(O[C@H]2CC[C@H](NC(=O)c3ccc(N4CCC5(CC4)CC(Cc4ccc(C6=N[C@@H](Cc7ncco7)c7nnc(C)n7-c7sc(C)c(C)c76)cc4)C5)nn3)CC2)ccc1C#N [Compound I-25, N-[4-(4-cyano-3-methoxy-phenoxy)cyclohexyl]-6-[2-[[4-[(9S)-4,5,13-trimethyl-9-(oxazol-2-ylmethyl)-3-thia-1,8,11,12-tetrazatricyclo[8.3.0.0^2,6]trideca-2 (6),4,7,10,12-pentaen-7-yl]phenyl]methyl]-7-azaspiro[3.5]nonan-7-yl]pyridazine-3-carboxamide]	< 500	< 500	< 500	–	–	1	1
COC[C@@H]1N=C(c2ccc(C3CCC4(CC3)CCN(c3ccc(C(=O)NC5CCC(Oc6ccc(C#N)c(OC)c6)CC5)nn3)C4)cc2)c2c(sc(C)c2C)-n2c(C)nnc21 (stereo partly drawn) [Compound I-27, N-[4-(4-cyano-3-methoxy-phenoxy)cyclohexyl]-6-[8-[4-[(9R)-9-(methoxymethyl)-4,5,13-trimethyl-3-thia-1,8,11,12-tetrazatricyclo[8.3.0.0^2,6]trideca-2 (6),4,7,10,12-pentaen-7-yl]phenyl]-2-azaspiro[4.5]decan-2-yl]pyridazine-3-carboxamide]	< 500	< 500	< 500	–	–	–	–
COCC[C@@H]1N=C(c2ccc(C3CCC4(CC3)CCN(c3ccc(C(=O)NC5CCC(Oc6ccc(C#N)c(OC)c6)CC5)nn3)C4)cc2)c2c(sc(C)c2C)-n2c(C)nnc21 (stereo partly drawn) [Compound I-29, N-[4-(4-cyano-3-methoxy-phenoxy)cyclohexyl]-6-[8-[4-[(9S)-9-(2-methoxyethyl)-4,5,13-trimethyl-3-thia-1,8,11,12-tetrazatricyclo[8.3.0.0^2,6]trideca-2 (6),4,7,10,12-pentaen-7-yl]phenyl]-2-azaspiro[4.5]decan-2-yl]pyridazine-3-carboxamide]	< 500	< 500	< 500	–	–	–	–
COCC[C@@H]1N=C(c2ccc(C#CC3CC4(C3)CN(c3ccc(C(=O)NC5CCC(Oc6ccc(C#N)c(OC)c6)CC5)nn3)C4)cc2)c2c(sc(C)c2C)-n2c(C)nnc21 (stereo partly drawn) [Compound I-30, N-[4-(4-cyano-3-methoxy-phenoxy)cyclohexyl]-6-[6-[2-[4-[(9S)-9-(2-methoxyethyl)-4,5,13-trimethyl-3-thia-1,8,11,12-tetrazatricyclo[8.3.0.0^2,6]trideca-2 (6),4,7,10,12-pentaen-7-yl]phenyl]ethynyl]-2-azaspiro[3.3]heptan-2-yl]pyridazine-3-carboxamide]	< 500	–	–	< 500	< 500	–	–
CC[C@@H]1N=C(c2ccc(C#CC3CC4(C3)CN(c3ccc(C(=O)N[C@H]5CC[C@H](Oc6ccc(C#N)c(OC)c6)CC5)nn3)C4)cc2)c2c(sc(C)c2C)-n2c(C)nnc21 [Compound I-31, N-[4-(4-cyano-3-methoxy-phenoxy)cyclohexyl]-6-[6-[2-[4-[(9S)-9-ethyl-4,5,13-trimethyl-3-thia-1,8,11,12-tetrazatricyclo[8.3.0.0^2,6]trideca-2 (6),4,7,10,12-pentaen-7-yl]phenyl]ethynyl]-2-azaspiro[3.3]heptan-2-yl]pyridazine-3-carboxamide]	< 500	< 500	< 500	–	–	–	–
COC[C@@H]1N=C(c2ccc(C#CC3CC4(C3)CN(c3ccc(C(=O)N[C@H]5CC[C@H](Oc6ccc(C#N)c(OC)c6)CC5)nn3)C4)cc2)c2c(sc(C)c2C)-n2c(C)nnc21 [Compound I-32, N-[4-(4-cyano-3-methoxy-phenoxy)cyclohexyl]-6-[6-[2-[4-[(9R)-9-(methoxymethyl)-4,5,13-trimethyl-3-thia-1,8,11,12-tetrazatricyclo[8.3.0.0^2,6]trideca-2 (6),4,7,10,12-pentaen-7-yl]phenyl]ethynyl]-2-azaspiro[3.3]heptan-2-yl]pyridazine-3-carboxamide]	< 500	< 500	< 500	–	–	–	–
COCC[C@@H]1N=C(c2ccc(C#CC3CC4(C3)CN(c3ccc(C(=O)N[C@H]5CC[C@H](Oc6ccc(C#N)c(OC(F)(F)F)c6)CC5)nn3)C4)cc2)c2c(sc(C)c2C)-n2c(C)nnc21 [Compound I-33]	< 500	–	–	< 500	< 500	–	–
COc1cc(O[C@H]2CC[C@H](NC(=O)c3cnc(N4CCC5(CCC(c6ccc(C7=N[C@@H](C)c8nnc(C)n8-c8sc(C)c(C)c87)cc6)CC5)C4)nc3)CC2)ccc1C#N (some centres unmarked) [Compound I-35]	< 500	< 500	< 500	–	–	–	–
COc1cc(O[C@H]2CC[C@H](NC(=O)c3ccc(N4CCC5(CCC(c6ccc(C7=N[C@@H](C)c8nnc(C)n8-c8sc(C)c(C)c87)cc6)CC5)C4)nc3)CC2)ccc1C#N (some centres unmarked) [Compound I-36]	< 500	< 500	< 500	–	–	–	–
